BindingDB's records for patent US12384798 (Nanjing Ruijie Pharma Co., 2025)

Assays:
Acetyl-CoA carboxylase 2 = Acetyl-CoA carboxylase 2 (Homo sapiens, UniProt O00763); assay: In Vitro Assay of Acetyl-CoA Carboxylase (ACC) Inhibition
Procedure: (§1) An exemplary procedure for the in vitro ACC inhibition assay, which can be used to determine the inhibitory action of the compounds of the invention toward either ACC1 or ACC2, is as follows. The ADP-Glo™ kinase assay kit from Promega was used. The ADP-Glo™ kinase assay is a luminescent ADP detection assay to measure enzymatic activity by quantifying the amount of ADP produced during an enzyme reaction. The assay was performed in two steps; first, after the enzyme reaction, an equal volume of ADP-Glo™ reagent was added to terminate the reaction and deplete the remaining ATP. Then, the kinase detection reagent was added to simultaneously convert ADP to ATP and allow the newly synthesized ATP to be measured using a luciferase/luciferin reaction. Luminescence can be correlated to ADP concentrations by using an ATP-to-ADP conversion curve. The detailed procedure was as follows. 4.5 μL of a working solution was added to a 384-well plate. […] A final ACC reaction solution consisted of: 0.5 nM ACC, 10 μM ATP, 5 μM acetyl-CoA, and 15 mM NaHCO3; and the final concentrations of the compound were measured as follows: 1 μM, 0.333 μM, 0.111 μM, 0.037 μM, 0.0123 μM, 0.00411 μM, 0.00137 μM, 0.000457 μM, 0.000152 μM, and 0.000051 μM. […] The plates were incubated at room temperature for 40 minutes, then read on a Perkin Elmer EnVision 2104 plate reader for luminescence in relative light unit (RLU).

Acetyl-CoA carboxylase 1 = Acetyl-CoA carboxylase 1 (Homo sapiens, UniProt Q13085); assay: as above
Procedure: as §1

Chain of Acetyl-CoA carboxylase 2 (O00763 whole entry): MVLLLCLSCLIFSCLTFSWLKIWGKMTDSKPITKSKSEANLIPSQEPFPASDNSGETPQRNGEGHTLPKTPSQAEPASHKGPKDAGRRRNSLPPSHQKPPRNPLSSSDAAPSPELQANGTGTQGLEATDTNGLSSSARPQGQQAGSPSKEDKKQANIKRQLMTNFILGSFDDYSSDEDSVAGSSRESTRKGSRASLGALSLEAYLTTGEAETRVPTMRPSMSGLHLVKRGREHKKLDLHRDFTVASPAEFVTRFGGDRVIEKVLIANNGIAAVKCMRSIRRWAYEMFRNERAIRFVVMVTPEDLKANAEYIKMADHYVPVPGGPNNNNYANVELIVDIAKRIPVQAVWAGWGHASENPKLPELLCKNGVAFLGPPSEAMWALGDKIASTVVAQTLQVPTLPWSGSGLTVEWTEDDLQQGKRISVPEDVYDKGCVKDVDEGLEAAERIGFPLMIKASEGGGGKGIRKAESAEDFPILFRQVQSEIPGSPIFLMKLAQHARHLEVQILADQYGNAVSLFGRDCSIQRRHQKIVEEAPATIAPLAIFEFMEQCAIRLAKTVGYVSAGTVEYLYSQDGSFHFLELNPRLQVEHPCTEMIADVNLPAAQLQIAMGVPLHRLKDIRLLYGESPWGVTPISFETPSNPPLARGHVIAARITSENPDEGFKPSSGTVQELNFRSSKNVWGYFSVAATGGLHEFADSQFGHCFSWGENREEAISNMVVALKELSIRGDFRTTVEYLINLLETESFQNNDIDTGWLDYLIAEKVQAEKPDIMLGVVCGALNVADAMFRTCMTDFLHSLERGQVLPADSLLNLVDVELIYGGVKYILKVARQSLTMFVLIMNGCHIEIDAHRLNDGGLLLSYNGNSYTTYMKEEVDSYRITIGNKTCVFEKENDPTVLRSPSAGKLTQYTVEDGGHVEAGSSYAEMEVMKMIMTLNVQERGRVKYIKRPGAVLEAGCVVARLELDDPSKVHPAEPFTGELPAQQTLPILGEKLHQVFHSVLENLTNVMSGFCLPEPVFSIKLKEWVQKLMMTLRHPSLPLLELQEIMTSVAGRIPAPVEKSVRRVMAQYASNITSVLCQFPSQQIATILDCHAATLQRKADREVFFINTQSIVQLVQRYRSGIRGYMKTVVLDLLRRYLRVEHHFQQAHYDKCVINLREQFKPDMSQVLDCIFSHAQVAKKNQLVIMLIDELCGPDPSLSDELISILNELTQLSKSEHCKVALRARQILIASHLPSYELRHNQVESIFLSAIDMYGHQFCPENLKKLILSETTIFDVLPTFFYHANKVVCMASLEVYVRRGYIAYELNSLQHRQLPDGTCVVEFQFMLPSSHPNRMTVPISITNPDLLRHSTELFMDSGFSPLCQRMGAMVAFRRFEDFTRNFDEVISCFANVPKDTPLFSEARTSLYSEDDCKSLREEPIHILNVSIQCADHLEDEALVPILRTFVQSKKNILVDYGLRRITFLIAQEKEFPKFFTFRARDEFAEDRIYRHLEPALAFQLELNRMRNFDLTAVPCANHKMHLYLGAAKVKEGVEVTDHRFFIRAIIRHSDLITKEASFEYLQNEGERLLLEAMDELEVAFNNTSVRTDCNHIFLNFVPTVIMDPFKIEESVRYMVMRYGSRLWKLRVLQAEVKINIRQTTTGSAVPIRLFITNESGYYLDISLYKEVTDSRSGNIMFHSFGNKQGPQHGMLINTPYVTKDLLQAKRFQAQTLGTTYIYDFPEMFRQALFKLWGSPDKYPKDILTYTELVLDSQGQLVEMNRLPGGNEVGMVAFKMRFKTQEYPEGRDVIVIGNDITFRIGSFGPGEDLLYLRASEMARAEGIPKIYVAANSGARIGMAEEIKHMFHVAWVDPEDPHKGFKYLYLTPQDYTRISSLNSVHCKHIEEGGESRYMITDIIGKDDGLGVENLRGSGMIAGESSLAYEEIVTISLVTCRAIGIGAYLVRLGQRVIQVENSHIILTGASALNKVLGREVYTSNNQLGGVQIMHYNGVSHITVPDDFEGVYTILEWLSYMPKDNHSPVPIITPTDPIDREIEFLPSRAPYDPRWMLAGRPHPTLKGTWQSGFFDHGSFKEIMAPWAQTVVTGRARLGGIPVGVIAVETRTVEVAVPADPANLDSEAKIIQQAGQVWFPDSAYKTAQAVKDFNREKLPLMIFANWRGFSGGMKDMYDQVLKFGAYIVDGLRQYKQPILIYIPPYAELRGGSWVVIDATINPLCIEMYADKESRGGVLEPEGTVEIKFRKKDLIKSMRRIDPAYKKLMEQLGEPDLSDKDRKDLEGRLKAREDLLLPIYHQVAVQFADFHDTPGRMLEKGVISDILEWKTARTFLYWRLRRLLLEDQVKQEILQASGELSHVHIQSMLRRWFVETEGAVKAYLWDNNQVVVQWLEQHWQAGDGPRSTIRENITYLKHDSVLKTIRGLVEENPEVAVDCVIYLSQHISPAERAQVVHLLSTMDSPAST

SMILES: COc1ccccc1[C@H](Cn1c(=O)n(CC2CC(C(=O)O)C2)c(=O)c2c(C)c(-c3ncco3)sc21)OC1CCOCC1 (some centres not stated) [US12384798, Compound c-1]
- IC50 (Acetyl-CoA carboxylase 2): 10 nM
- IC50 (Acetyl-CoA carboxylase 1): 0.487 nM
